{"source": "paper PMC9246869", "about": "“Allosteric inhibition of PPM1D serine/threonine phosphatase via an altered conformational state” (Nature Communications, 2022)", "type_in_all_cases": "binding", "key": {"PPM1DΔhinge": {"biological_target": "T1, PPM1DΔhinge (Homo sapiens, UniProt O15297, DEL155-163/G166S/M164G/T165G)", "T1 construct": "PPM1D1–154-GGS-167–420 (PPM1D∆hinge); His(6)-SUMO (N, cleaved yes); made in house; host or cells: E. coli BL21 (DE3)", "T1 sequence (O15297 with tags, fused parts or gaps DEL155-163/M164G/T165G/G166S)": "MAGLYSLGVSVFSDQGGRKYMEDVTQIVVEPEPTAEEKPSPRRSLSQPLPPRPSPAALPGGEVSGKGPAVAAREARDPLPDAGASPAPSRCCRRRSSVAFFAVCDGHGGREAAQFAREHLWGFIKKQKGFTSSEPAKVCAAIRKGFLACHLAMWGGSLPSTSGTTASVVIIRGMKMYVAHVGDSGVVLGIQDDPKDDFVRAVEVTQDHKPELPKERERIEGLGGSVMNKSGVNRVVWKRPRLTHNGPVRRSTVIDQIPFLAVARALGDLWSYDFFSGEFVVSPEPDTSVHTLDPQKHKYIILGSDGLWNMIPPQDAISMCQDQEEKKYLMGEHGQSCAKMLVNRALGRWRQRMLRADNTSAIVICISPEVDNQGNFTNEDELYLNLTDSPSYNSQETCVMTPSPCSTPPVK", "assay": "Isothermal titration calorimetry (ITC)", "details": "Sup Fig 5C", "protocol": "(§1) Assessments of the analog of GSK2830371 (analog 1d) binding to wild-type and mutant proteins were conducted using an Auto-iTC200 microcalorimeter (Malvern) (see section on synthesis of analog 1d below). The protein was dialyzed extensively into 25 mM HEPES (pH 7.4), 150 mM NaCl, 10 mM MgCl2 and 1 mM TCEP. The dialyzed protein was used to prepare fresh working solutions of protein (20 µM) and analog 1d (200 µM) in 2% DMSO (v/v) in the same buffer. Titrations were performed at 25 °C and consisted of a single initial injection of 0.4 µL, followed by 19 injections of 2 µL of compound into a sample cell containing wild-type or mutant PPM1D, with an interval of 150 s between successive injections. The reference power and stirring speed were set at […] and 1000 RPM, respectively. Heat of dilution and mixing were obtained from injections of analog 1d into ITC buffer lacking protein and subtracted from the integrated data before curve fitting. Thermodynamic data were analyzed using Origin 7.0 software and fitted by non-linear regression to the model for a single binding site."}, "PPM1DΔflap [1]": {"biological_target": "T2, PPM1DΔflap (Homo sapiens, UniProt O15297, DEL219-231/DEL235-284/E287S/S285N)", "T2 construct": "PPM1D1–218-GGSNGS-288–420 (PPM1D∆flap); His(6)-SUMO (N, cleaved yes); made in house; host or cells: E. coli BL21 (DE3)", "T2 sequence (O15297 with tags, fused parts or gaps DEL219-231/DEL235-284/S285N/E287S)": "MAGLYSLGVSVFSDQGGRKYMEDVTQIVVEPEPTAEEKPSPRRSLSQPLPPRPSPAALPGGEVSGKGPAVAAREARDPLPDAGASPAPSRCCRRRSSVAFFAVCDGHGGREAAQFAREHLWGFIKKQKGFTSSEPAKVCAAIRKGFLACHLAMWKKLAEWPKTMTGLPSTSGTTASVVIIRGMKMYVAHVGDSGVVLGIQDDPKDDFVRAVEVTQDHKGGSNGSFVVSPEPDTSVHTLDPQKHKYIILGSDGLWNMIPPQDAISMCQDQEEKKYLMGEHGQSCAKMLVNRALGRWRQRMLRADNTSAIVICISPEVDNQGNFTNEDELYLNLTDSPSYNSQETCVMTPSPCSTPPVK", "assay": "Isothermal titration calorimetry (ITC)", "details": "Sup Fig 5A", "protocol": "as §1"}, "PPM1D1–420": {"biological_target": "T3, PPM1D1–420 (Homo sapiens, UniProt O15297)", "T3 construct": "PPM1D1–420 was PCR-amplified from the synthesized gene with BsaI sites; His(6)-SUMO (N, cleaved yes); made in house; host or cells: E. coli BL21 (DE3)", "T3 sequence (O15297 1-420)": "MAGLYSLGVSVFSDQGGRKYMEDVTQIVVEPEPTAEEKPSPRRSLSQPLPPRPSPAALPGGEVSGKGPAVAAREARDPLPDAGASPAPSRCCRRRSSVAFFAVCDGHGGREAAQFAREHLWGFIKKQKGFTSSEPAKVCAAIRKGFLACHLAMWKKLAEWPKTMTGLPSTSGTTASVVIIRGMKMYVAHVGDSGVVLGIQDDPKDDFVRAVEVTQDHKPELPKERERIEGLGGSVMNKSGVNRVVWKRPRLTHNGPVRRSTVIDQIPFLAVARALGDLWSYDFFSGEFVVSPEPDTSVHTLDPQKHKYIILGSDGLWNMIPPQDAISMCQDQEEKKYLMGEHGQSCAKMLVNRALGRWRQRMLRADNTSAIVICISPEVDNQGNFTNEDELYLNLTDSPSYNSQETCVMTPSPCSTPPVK", "assay": "Differential scanning calorimetry (DSC)", "protocol": "(§2) DSC thermograms were recorded in MicroCal DSC from Malvern with an autosampler. For DSC experiments the purified protein constructs were extensively dialyzed against 25 mM HEPES pH 7.5, 10 mM MgCl2, 150 mM NaCl and 1 mM TCEP. The experiments were performed using 0.4 mg/mL concentration of wild-type or mutant protein (8.5–8.9 µM), with and without GSK2830371 compound at 40 µM and 2% DMSO (v/v). The respective reference scans were run under identical DSC set up conditions and subtracted from each sample scan. The program was run in a continuous acquisition mode from 25 °C to 90 °C at a rate of 120 °C/h The heat capacity curves and midpoint temperature (Tm) were analyzed using Origin 7.0 software."}, "PPM1DΔflap [2]": {"biological_target": "T2, PPM1DΔflap", "assay": "Differential scanning calorimetry (DSC)", "details": "Supplementary Fig. 5B", "protocol": "as §2"}, "[3]": {"details": "ITC stoichiometry, average of 2 trials"}, "[4]": {"details": "source data Fig 3C, with GSK, in °C (unit assumed)"}}, "note": "“And” between values parts separate entries of the source, which are not always exact repeats. Equal entries are not always repeated. Where two headings read alike, the source gives them in different places."}
{"compound": "Cc1ncc(Cl)cc1NCc1ccc(C(=O)N[C@@H](CC2CCCC2)C(=O)NC2CC2)s1", "note": "[GSK2830371]", "values": [{"measurement": "N Average", "setting": "PPM1DΔhinge; [3]", "value": 0.8785}, {"measurement": "DH Average", "setting": "PPM1DΔhinge; ITC, average of 2 trials", "value": -3.817, "unit": "kcal/mol"}, {"measurement": "DS Average", "setting": "PPM1DΔhinge; ITC, average of 2 trials", "value": 13.65, "unit": "cal/mol/deg"}, {"measurement": "DH", "setting": "PPM1DΔhinge; ITC, individual trials", "value": "-3.047 kcal/mol and -4.587 kcal/mol"}, {"measurement": "DS", "setting": "PPM1DΔhinge; ITC, individual trials", "value": "16.6 cal/mol/deg and 10.7 cal/mol/deg"}, {"measurement": "N Average", "setting": "PPM1DΔflap [1]; [3]", "value": 1.11}, {"measurement": "DH Average", "setting": "PPM1DΔflap [1]; ITC, average of 2 trials", "value": -14.43, "unit": "kcal/mol"}, {"measurement": "DS Average", "setting": "PPM1DΔflap [1]; ITC, average of 2 trials", "value": -12.15, "unit": "cal/mol/deg"}, {"measurement": "Kd", "setting": "PPM1DΔflap [1]; ITC, average of 2 trials, read-out: Kd Average", "value": 11.9, "unit": "nM"}, {"measurement": "DH", "setting": "PPM1DΔflap [1]; ITC, individual trials", "value": "-14.15 kcal/mol and -14.71 kcal/mol"}, {"measurement": "DS", "setting": "PPM1DΔflap [1]; ITC, individual trials", "value": "-11.3 cal/mol/deg and -13 cal/mol/deg"}, {"measurement": "Kd", "setting": "PPM1DΔflap [1]; ITC, individual trials, read-out: Kd", "value": "12.2 nM and 11.5 nM"}, {"measurement": "ΔTm at 40 µM", "setting": "PPM1D1–420; PPM1D1–420, 40 µM compound, read-out: thermal shift by DSC", "value": 8, "unit": "°C"}, {"measurement": "DSC Trial 1 (melting temperature)", "setting": "PPM1D1–420; Sup Fig 2D, protein with GSK vs WT alone, trial 1", "value": "62.26 ˚C"}, {"measurement": "DSC Trial 2 (melting temperature)", "setting": "PPM1D1–420; Sup Fig 2D, protein with GSK vs WT alone, trial 2", "value": "62.33 ˚C"}, {"measurement": "DSC Trial 3 (melting temperature)", "setting": "PPM1D1–420; Sup Fig 2D, protein with GSK vs WT alone, trial 3", "value": "62.14 ˚C"}, {"measurement": "DSC Average (melting temperature)", "setting": "PPM1D1–420; Sup Fig 2D, protein with GSK, average of trials", "value": "62.2433 ˚C"}, {"measurement": "DSC Average (Tm)", "setting": "PPM1D1–420; [4]", "value": 62.2433}, {"measurement": "DSC Trial 1 (Tm)", "setting": "PPM1D1–420; [4]", "value": 62.26}, {"measurement": "DSC Trial 2 (Tm)", "setting": "PPM1D1–420; [4]", "value": 62.33}, {"measurement": "DSC Trial 3 (Tm)", "setting": "PPM1D1–420; [4]", "value": 62.14}, {"measurement": "thermal shift by DSC", "setting": "PPM1DΔflap [2]", "value": "+8.5 °C"}]}
